# Test results taken from US20240287033A1, “DEGRADERS OF TISSUE TRANSGLUTAMINASE 2 (TG2)” (Northwestern University, priority 2023, published 2024).
# Entries after “also recorded” stand apart in the source; their conditions may differ. Read-outs that look alike come from different tables or passages of the source.
# Experiments:
# Solubility observations = type: physicochemical
# full-length TG2 [1] = molecular target: T1, full-length TG2 (Homo sapiens, UniProt P21980); conditions: literature value (ref. 41); read-out: KD of MT4 to TG2, previously reported result; cited from earlier work
# T1 sequence (P21980 1-687): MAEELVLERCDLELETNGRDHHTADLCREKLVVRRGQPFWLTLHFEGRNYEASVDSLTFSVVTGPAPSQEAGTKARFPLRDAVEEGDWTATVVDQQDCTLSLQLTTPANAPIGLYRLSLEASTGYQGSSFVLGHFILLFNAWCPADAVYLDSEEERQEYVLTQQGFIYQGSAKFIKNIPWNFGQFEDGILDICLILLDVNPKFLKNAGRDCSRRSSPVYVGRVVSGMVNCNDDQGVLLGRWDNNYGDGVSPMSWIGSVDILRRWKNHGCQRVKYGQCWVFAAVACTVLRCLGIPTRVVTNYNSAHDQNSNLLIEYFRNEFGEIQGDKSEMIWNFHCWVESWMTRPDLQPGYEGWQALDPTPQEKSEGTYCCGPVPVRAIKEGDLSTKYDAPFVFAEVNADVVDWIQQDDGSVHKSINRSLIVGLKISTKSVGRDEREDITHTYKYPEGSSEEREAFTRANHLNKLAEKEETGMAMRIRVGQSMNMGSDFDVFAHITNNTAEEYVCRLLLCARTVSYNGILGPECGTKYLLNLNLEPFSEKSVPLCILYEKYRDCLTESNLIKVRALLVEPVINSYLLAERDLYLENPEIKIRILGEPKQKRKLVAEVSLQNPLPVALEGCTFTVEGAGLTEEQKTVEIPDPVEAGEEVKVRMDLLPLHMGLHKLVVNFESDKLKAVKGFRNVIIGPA
# full-length TG2 [2] = molecular target: T1, full-length TG2; test: Isothermal titration calorimetry (ITC) binding to TG2; conditions: for Kd: titration into TG2 at 30° C., PBS with 1% DMSO, read-out: equilibrium dissociation constant KD (ITC)
# Experimental: Sample Preparation. Protein dilutions in PBS with 1% DMSO were prepared from stock solutions of […] in PBS. The protein dilutions were initially equilibrated on ice for 5 min, then for 20 min at 30° C. The solutions were filtered using a […] Millipore centrifugal device just prior to insertion in the ITC cell. The solubility of the protein solutions was confirmed independently by DLS (data not shown), and the concentration of each solution (after filtration) was measured with a NanoDrop 2000 Instrument.
# All compound dilutions were made in PBS, and the final DMSO concentration in each solution was carefully adjusted to 1%.
# ITC Experiments. All ITC experiments were performed on an Affinity Low Volume instrument (Waters/TA Instruments) equipped with a fixed 198 μL gold cell. In each experiment, 320 μL of protein solution was loaded into the ITC cell, and 200 μL of the corresponding compound was in the syringe. The data were acquired using ITCRun data acquisition software. The incremental ITC experiments consisted of multiple 2 μL injections at 50-350-second intervals with a stirring speed of 100 revolutions per minute (rpm). The Auto Equilibrate function allowed for the equilibration of the baseline to a peak-to-peak standard deviation of less than 12 nW. For each compound, separate control experiments were performed to evaluate the heat of dilution. The control experiments were set with identical parameters but performed with reaction buffer instead of protein in the ITC cell and consisted of fewer (6-10) injections.
# Data Analysis. ITC data were analyzed with Nano Analyze Software (Waters/TA Instruments) using the “independent sites” model after correction for heats of dilution.
# OVCAR5 cells [3] = test: Solid phase adhesion assay on fibronectin, OVCAR5; type: cell-based
# Experimental: (§1) Briefly, wells were coated with 10 μg/ml fibronectin diluted in PBS for one hour. 30,000 cells pretreated with compounds for 6 hours were seeded and allowed to attach for 30 minutes. After washing with PBS to remove unattached cells, cells adhering to coated wells were quantified by using the CCK-8 assay (ApexBio), following the manufacturer's protocol. Relative absorbance measured at 496 nm was used to estimate the relative number of the cell attached to fibronectin coated wells.
# SKOV3 cells [4] = test: Transwell migration assay, SKOV3; type: cell-based
# Experimental: (§2) For the scratch assay, confluent 6-well plates were scratched with a pipette tip, washed and treated with compounds or vehicle. The plate was photographed at set time points and the area of wound closure was quantified with ImageJ. Cell migration was assessed by using Transwell inserts (8 μm pore size, Merck-Millipore, Watford, UK). Briefly, 15,000 cells were seeded in the upper chambers of trans-wells in serum-free media containing compounds or control, while media containing 10% serum was added to the lower chamber. After 18 hours, cells invaded through the transwells were fixed with warm 4% PFA for 20 min at room temperature and stained with crystal violet for 3 min. The membranes were removed, mounted on cover slides and cells were counted using a microscope at 40× magnification.
# OVCAR5 cells [5] = test: Cell viability assay (CCK-8), OVCAR5; type: cell-based; conditions: 0.1-30 μM, 5 days
# Experimental: (§3) The numbers of viable cells were quantified by using the CCK-8 assay (ApexBio) following the manufacturer's directions. Absorbance was measured by a spectrophotometer at 495 nm and used estimate the viability of the cells.
# OVCAR5 cells [6] = test: Wound-healing (scratch) assay, OVCAR5; type: cell-based
# Experimental: as §2
# SKOV3 cells [7] = test: Wound-healing (scratch) assay, SKOV3; type: cell-based
# Experimental: as §2
# TG2 [8] = molecular target: T2, TG2 (Homo sapiens, UniProt P21980); test: Western blot analysis of TG2 degradation in OVCAR5 cells; type: cell-based
# T2 construct: tested in multiple ovarian cancer cell lines that express TG2 for their ability to degrade the protein; endogenous in cells; host or cells: OVCAR5 and SKOV3 ovarian cancer cells
# T2 sequence (P21980 1-687): T1 sequence (P21980 1-687)
# Experimental: (§4) SKOV3 cells were purchased from ATCC. OVCAR5 cells were obtained from Dr. Marcus Peter at Northwestern University. Cells were maintained at 37° C. in an environment of 5% CO2 and 100% humidity. The media used for culturing the cell lines are included in Table 1. Cells lines used in all experiments were at low-passages and were confirmed to be pathogen and mycoplasma-free by Charles River Animal Diagnostic Services. Cell lines were authenticated by IDEXX BioAnalytics with short tandem repeat (STR) profiling. MG132 was obtained from SelleckChem. Anti-TG2 antibody (cat #: MAB3839-I-100UG) was purchased from Millipore Sigma, GAPDH antibody (cat #: H86504M) was purchased from Meridian Bioscience.
# (§5) Briefly, SKOV3 and OVCAR5 cells were seeded on 6 cm dishes and treated with different concentrations of compounds at different time points. Proteins were extracted using RIPA buffer and quantified using the Bradford assay. After gel electrophoresis and transfer, PDVF membranes were blocked with TBS-Tween 5% BSA for one hour and incubated with primary antibodies 20 (1:1000 dilution, overnight at 4° C.). After incubation with the secondary antibody (anti rabbit/mouse-horseradish peroxidase 1:1000 dilution) for 1 h at room temperature, signal was developed using SuperSignal West Pico PLUS Chemiluminescent Substrate (Thermo Fisher Scientific cat #: 34580) and captured with an ImageQuant LAS 4000 machine. To detect additional proteins, membranes were treated with Restore Western Blot Stripping Buffer (Thermo Fisher Scientific cat #: 21059), blocked, and then incubated with primary antibody.
# TG2 [9] = molecular target: T2, TG2; test: Western blot analysis of TG2 degradation in SKOV3 cells; type: cell-based
# Experimental: as §4, §5
# OVCAR5 cells [10] = test: Transwell migration assay, OVCAR5; type: cell-based
# Experimental: as §2
# SKOV3 cells [11] = test: Solid phase adhesion assay on fibronectin, SKOV3; type: cell-based
# Experimental: as §1
# SKOV3 cells [12] = test: Cell viability assay (CCK-8), SKOV3; type: cell-based; conditions: 0.1-30 μM, 5 days
# Experimental: as §3
# [13] = 10 μM compound 6 hrs, 10 μM VHL ligand
# [14] = dosed every 6-8 hours over 24 hours, 1 or 10 μM
smiles,measurement,setting,value
"Cc1cc(N(C)C)nc(Nc2ccc(NC(=O)Cc3ccccc3)cc2)n1 [MT4, reference compound]",solubility (in words),Solubility observations,lower solubility than the PROTAC compounds
same,Kd,full-length TG2 [1],5.1 µM
same,Kd,full-length TG2 [2],7.8 µM
"Cc1cc(N(C)CCOCCC(=O)N[C@H](C(=O)N2C[C@H](O)C[C@H]2C(=O)NCc2ccc(-c3scnc3C)cc2)C(C)(C)C)nc(Nc2ccc(NC(=O)Cc3ccccc3)cc2)n1 [Compound 7, (2S,4R)-1-((S)-3,3-dimethyl-2-(3-(2-(methyl(6-methyl-2-((4-(2-phenylacetamido)phenyl)amino)pyrimidin-4-yl)amino)ethoxy)propanamido)butanoyl)-4-hydroxy-N-(4-(4-methylthiazol-5-yl)benzyl)pyrrolidine-2-carboxamide]",adhesion of cells to fibronectin,OVCAR5 cells [3],significantly reduced the adhesion
same,"cell migration, transwell migration assay",SKOV3 cells [4],similarly inhibited the migration
same,cell death / viability,OVCAR5 cells [5],No significant cell death; also recorded: no cell death was observed
same,solubility (in words),Solubility observations,poorer solubility than compound 11
same,"cell migration, wound-healing assay",OVCAR5 cells [6],potently inhibited the migration
same,"cell migration, wound-healing assay",SKOV3 cells [7],similarly inhibited the migration
same,TG2 degradation with VHL ligand as competitive inhibitor,TG2 [8]; [13],prevented degradation of TG2
same,TG2 degradation (western blot),"TG2 [8]; 6 hours, 0.1-10 μM",significantly reduced the level of TG2; also recorded: Degradation of TG2 was observed
same,TG2 levels after longer treatment (western blot),"TG2 [8]; 24 hours, single dosing",did not induce reduction in TG2 levels
same,TG2 levels at 24 hours after repeated dosing,TG2 [8]; [14],persistent and dose-dependent decreased TG2 levels
same,TG2 degradation with VHL ligand as competitive inhibitor,TG2 [9]; [13],prevented degradation of TG2; also recorded: but not when combined with VHL ligand
same,TG2 degradation (western blot),"TG2 [9]; 6 hours, up to 10 μM",significantly reduced the level of TG2; also recorded: Degradation of TG2 was observed
same,TG2 levels after longer treatment (western blot),"TG2 [9]; 24 hours, single dosing",did not induce reduction in TG2 levels
same,TG2 levels at 24 hours after repeated dosing,TG2 [9]; [14],persistent and dose-dependent decreased TG2 levels
same,time of maximal TG2 degradation,TG2 [9]; higher concentrations (10 and 30 μM),6 h
same,"cell migration, transwell migration assay",OVCAR5 cells [10],potently inhibited the migration
same,decrease in affinity relative to the parental compound MT4,full-length TG2 [2]; ITC KD ratio versus MT4,> 12.8 fold
same,Kd,full-length TG2 [2],> 100 µM
same,adhesion of cells to fibronectin,SKOV3 cells [11],significantly reduced the adhesion
same,cell death / viability,SKOV3 cells [12],No significant cell death; also recorded: no cell death was observed
